In ChEMBL document CHEMBL1649532, “Trypanocidal activity of 8-methyl-5'-{[(Z)-4-aminobut-2-enyl]-(methylamino)}adenosine (Genz-644131), an adenosylmethionine decarboxylase inhibitor” (Antimicrob Agents Chemother, 2009):
≈ marks a conversion by molar mass, not a printed value. Calls of active or inactive are those of the source. The rule behind the calls is not given here.

Key:
[1] = tested on: Trypanosoma brucei brucei; test: Trypanocidal activity against Trypanosoma brucei brucei EATRO infected in mouse assessed as mean survival time at 2 mg/kg, ip QD for 4 days; assay type: functional; conditions: route intraperitoneal
[2] = tested on: Trypanosoma brucei rhodesiense; test: Trypanocidal activity against Trypanosoma brucei rhodesiense KETRI1992 infected in mouse assessed as protection against trypanosomal infection at 2 mg/kg, ip QD administered 24 hrs postinfection; assay type: functional, organism-based; parameters: dose 2 mg/kg
[3] = tested on: Trypanosoma brucei rhodesiense; test: Trypanocidal activity against Trypanosoma brucei rhodesiense KETRI243 infected in mouse assessed as protection against trypanosomal infection at 2 mg/kg, ip QD administered 24 hrs postinfection; assay type: functional, organism-based; parameters: dose 2 mg/kg
[4] = tested on: Trypanosoma brucei rhodesiense; test: Trypanocidal activity against Trypanosoma brucei rhodesiense KETRI2002 infected in mouse assessed as protection against trypanosomal infection at 2 mg/kg, ip QD administered 24 hrs postinfection; assay type: functional, organism-based; parameters: dose 2 mg/kg
[5] = tested on: Trypanosoma brucei rhodesiense; test: Trypanocidal activity against Trypanosoma brucei rhodesiense KETRI1992 infected in mouse assessed as average survival time at 2 mg/kg, ip QD administered 24 hrs postinfection; assay type: functional; conditions: route intraperitoneal
[6] = tested on: Trypanosoma brucei rhodesiense; test: Trypanocidal activity against Trypanosoma brucei rhodesiense KETRI243 infected in mouse assessed as average survival time at 2 mg/kg, ip QD administered 24 hrs postinfection; assay type: functional; conditions: route intraperitoneal
[7] = tested on: Trypanosoma brucei brucei; test: Trypanocidal activity against Trypanosoma brucei brucei EATRO after 48 hrs; assay type: functional, organism-based
[8] = tested on: Trypanosoma brucei rhodesiense; test: Trypanocidal activity against Trypanosoma brucei rhodesiense KETRI2538 after 48 hrs; assay type: functional, organism-based; conditions: KETRI2538, 48 h
[9] = tested on: Trypanosoma brucei rhodesiense; test: Trypanocidal activity against Trypanosoma brucei rhodesiense KETRI243 after 48 hrs; assay type: functional, organism-based; conditions: KETRI243, 48 h
[10] = tested on: Trypanosoma brucei rhodesiense; test: Ratio of Kinact to Kiapp for Trypanosoma brucei rhodesiense AdoMetDC

Compound	MST [1] [days]	Activity [2]	Activity [3]	Activity [4]	MST [5] [days]	MST [6] [days]	IC50 [7] [µg/mL]	IC50 [8] [µg/mL]	IC50 [9] [µg/mL]	Activity [10] [min⁻¹ M⁻¹]
N=C(N)c1ccc(OCCCCCOc2ccc(C(=N)N)cc2)cc1 [PENTAMIDINE]	>35	inactive	inactive	Active	18	11.6	–	–	–	–
CN(C/C=C\CN)C[C@H]1O[C@@H](n2cnc3c(N)ncnc32)[C@H](O)[C@@H]1O	–	–	–	–	–	–	0.05 (≈ 0.143 µM)	0.021 (≈ 0.0601 µM)	0.02 (≈ 0.0572 µM)	1.5
